pIC50: −log10 of the molar value. Like-named read-outs stand apart in the source and are kept apart here. Blank lines part the entries; values can stand above or below the compound they belong to.
What was measured:
COX-1 [1] = molecular target: T1, COX-1 (Mus musculus, UniProt P22437); details: Table 1, reported by reference; cited from earlier work
T1 construct: endogenous in cells; host or cells: J774 murine monocyte/macrophage cell line
T1 sequence (P22437 27-602): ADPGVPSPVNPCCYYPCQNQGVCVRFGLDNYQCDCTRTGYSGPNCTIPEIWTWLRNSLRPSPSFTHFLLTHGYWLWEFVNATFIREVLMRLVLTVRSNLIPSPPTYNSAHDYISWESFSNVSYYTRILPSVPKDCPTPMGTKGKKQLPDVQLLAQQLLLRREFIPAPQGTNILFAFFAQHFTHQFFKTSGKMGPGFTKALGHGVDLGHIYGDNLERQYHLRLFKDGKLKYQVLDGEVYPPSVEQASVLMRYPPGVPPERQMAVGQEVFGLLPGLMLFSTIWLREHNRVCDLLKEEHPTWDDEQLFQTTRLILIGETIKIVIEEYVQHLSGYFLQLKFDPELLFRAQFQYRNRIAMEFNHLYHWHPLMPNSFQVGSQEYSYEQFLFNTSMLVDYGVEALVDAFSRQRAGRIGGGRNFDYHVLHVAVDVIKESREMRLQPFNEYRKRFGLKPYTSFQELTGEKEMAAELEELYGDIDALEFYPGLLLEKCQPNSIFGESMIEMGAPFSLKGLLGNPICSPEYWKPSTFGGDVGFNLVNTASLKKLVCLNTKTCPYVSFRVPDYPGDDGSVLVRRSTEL

COX-2 [2] = molecular target: T2, COX-2 (Mus musculus, UniProt Q05769); details: Table 1, reported by reference; cited from earlier work
T2 construct: lipopolysaccharide (LPS, 10 μg/mL) to induce COX-2; endogenous in cells; host or cells: J774 murine monocyte/macrophage cell line, LPS-stimulated
T2 sequence (Q05769 18-604): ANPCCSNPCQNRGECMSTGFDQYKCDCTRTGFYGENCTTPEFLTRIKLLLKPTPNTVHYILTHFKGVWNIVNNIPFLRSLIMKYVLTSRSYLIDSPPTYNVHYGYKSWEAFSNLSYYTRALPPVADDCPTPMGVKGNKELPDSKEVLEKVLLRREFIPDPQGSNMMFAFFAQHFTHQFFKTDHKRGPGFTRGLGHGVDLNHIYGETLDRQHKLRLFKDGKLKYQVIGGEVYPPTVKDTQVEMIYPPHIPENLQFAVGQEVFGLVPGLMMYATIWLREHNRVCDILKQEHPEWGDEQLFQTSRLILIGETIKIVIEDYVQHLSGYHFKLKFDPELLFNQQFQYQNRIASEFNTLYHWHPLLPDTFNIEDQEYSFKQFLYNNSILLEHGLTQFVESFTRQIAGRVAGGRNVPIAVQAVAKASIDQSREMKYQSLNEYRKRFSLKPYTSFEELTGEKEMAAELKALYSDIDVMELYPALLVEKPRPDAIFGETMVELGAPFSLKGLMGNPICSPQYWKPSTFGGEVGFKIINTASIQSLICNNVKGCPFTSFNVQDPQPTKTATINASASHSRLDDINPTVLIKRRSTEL

[3] = test system: rat model of hyperalgesia induced by carragenine; assay: Paw pressure test, hyperalgesia induced by carragenine; format: in vivo; details: 20 mg/Kg
Procedure: (§1) Male Swiss albino mice (23-25 g) and Sprague Dawley or Wistar rats (150-200 g) were used. The animals were fed a standard laboratory diet and tap water ad libitum and kept at 23±1° C. with a 12 h light/dark cycle, light on at 7 a.m.
The nociceptive threshold in the rat was determined with an analgesimeter, according to the method described by Leighton et al, G. E.; Br. J. Pharmacol. 1988, 93, 553-560. Threshold pressure was measured before and 30, 60 and 120 min after treatment. An arbitrary cut-off value of 250 g was adopted. In order to induce an inflammatory process in the rat paw carrageenan (0.1 ml, 1%) was administered i.p. 4 h before test.

[4] = test system: rat model of edema induced by carragenine; assay: Carrageenan-induced paw edema; format: in vivo; details: 1 h, 60 min, 20 mg/Kg, read-out: Edema inhibition 60 min, MPE
Procedure: as §1
Rats paw volumes were measured using a plethysmometer. Rats received the investigated compounds 4 hours after a 0.1-ml injection of 1.0% carrageenan in the right hind paw. Five hours after the injection of carrageenan (i.e. 1 hour after the administration of the investigated compound), the paw volume of the right hind paw was measured and compared with saline/carrageenan-treated controls. Results are reported as maximum percent effect (MPE), see below for detailed explanation.

COX-2 [5] = molecular target: T2, COX-2; assay: Assessment of COX-2 activity in LPS-stimulated J774 cells (PGE2 radioimmunoassay); format: cell-based, murine
Procedure: Cells were stimulated for 24 h with E. coli lipopolysaccharide (LPS, 10 μg/mL) to induce COX-2, in the absence or presence of test compounds, at the concentrations previously reported. The supernatants were collected for the measurement of PGE2 by radioimmunoassay.
(§2) Analysis. Throughout the time the experiments lasted, triplicate wells were used for the various conditions of treatment. Results are expressed as the mean, for 3 experiments, of the % inhibition of PGE2 production by test compounds with respect to control samples. Data fit was obtained using the sigmoidal dose-response equation (variable slope). The IC50 were calculated by GraphPad Instat program (GraphPad software).

[6] = test system: rat model of edema induced by Zymosan; assay: Zymosan-induced paw edema; format: in vivo; details: oral, 4 mg/Kg
Procedure: as §1
(§3) The interplantar injection of Zymosan-induced mechanical hyperalgesia may be used as a model of inflammatory pain (Meller, Neuropharmacology, 1994, 33, 1471-1478). In this model, typically a male Sprague-Dawely or Wistar rat (200-250 g) receives an interplantar injection of 4 mg/100 μl zymosan into one hind paw. A marked inflammation occurs in this hind paw. Drugs are administered orally for evaluation of efficacy, 30 min. before the inflammatory insult. The hyperalgesia induced by zymosan administration was evaluated using the Randal-Selitto method (Arch. Int. Pharmacodyn., 1957, 111, 409). The quantitation of the analgesic effect is achieved by an analgesimeter, which consist in applying to the inflamed paw an increasing weight (from 130-140 g up to 500 g). The difference in the mechanical pain threshold between the basal value (generally 230-250 g) and the one tolerated by the animals treated with the drug, determined 4 hours after the inflammatory challenge, is defined as mechanical hyperalgesia.
In vivo anti-inflammatory effect exerted by the compounds of the invention can be assessed in the same Zymosan induced inflammation test described above, by measuring the volume of the oedema induced by the inflammatory agent. The oedema was evaluated as the increase in the volume of the Zymosan injected paw within a time of 0-2 hrs. The measurements of the variation of the oedema volume of the paw were recorded using hydroplethysmometer. Results are expressed as MPE, maximum percent effect, that in this case represents the reduction (%) in the oedema of treated animals in comparison to controls (animals treated with Zymosan, which received only the vehicle).

[7] = test system: rat model of hyperalgesia induced by Zymosan; assay: Zymosan-induced hyperalgesia (Randal-Selitto); format: in vivo; details: oral, 4 mg/Kg
Procedure: as §1, §3
Mechanical hyperalgesia is expressed for the compounds of the invention as maximum percent effect (MPE) which represents the difference (%) in pain threshold between the animals treated with the drug and the controls that received only the vehicle.
Results are reported as MPE (reduction of the nociceptive effect, due to paw loading with increasing weight, in comparison to controls). 100% MPE means that the animal treated with the compound and Zymosan can tolerate the same stimulus (weight) as the control animals which have not received Zymosan treatment. MPE higher than 100% mean that the animal treated with the compound and Zymosan can tolerate stimuli (weight) higher than the control animals, which has not received Zymosan treatment (hypoalgesia).

COX-1 [8] = molecular target: T1, COX-1; assay: Assessment of COX-1 activity in J774 cells (arachidonic acid, PGE2 radioimmunoassay); format: cell-based, murine; details: Table 8, Formula I-c
Procedure: Stock solutions of the reference standard or of the test compounds were prepared in dimethyl sulphoxide, and an equivalent amount of dimethyl sulphoxide was included in control samples. At the end of the incubation the supernatants were collected for the measurement of PGE2 by radioimmunoassay.
as §2

[9] = 0.5 h, 30 min, read-out: Analgesia 30 min MPE
[10] = 1 h, 60 min, read-out: Analgesia 60 min MPE
[11] = read-out: in vitro COX-2 inhibitory potency IC50
[12] = Table 8, Formula I-c, read-out: COX-2 IC50

- melting point: 145 °C
Structure (SMILES): CCOC(=O)C(O)c1cc(-c2ccc(S(C)(=O)=O)cc2)n(-c2ccccc2)c1C (racemic) [Example 7, Ethyl[2-hydroxy-2-[2-methyl-5-(4-methylsulphonyl)phenyl-1-phenyl-1H-pyrrol-3-yl]]acetate]

- melting point: 130 °C
Structure (SMILES): CCOC(=O)C(O)c1cc(-c2ccc(S(C)(=O)=O)cc2)n(-c2ccc(OC)cc2)c1C (racemic) [Example 8, Ethyl[2-hydroxy-2-[1-(4-methoxy)phenyl-2-methyl-5-(4-methylsulphonyl)phenyl-1H-pyrrol-3-yl]]acetate]

Structure (SMILES): Cc1c(CC(=O)O)cc(-c2ccc(S(C)(=O)=O)cc2)n1-c1ccccc1 [Compound 1a, 2-[2-methyl-5-(4-methylsulphonyl)phenyl-1-phenyl-1H-pyrrol-3-yl]acetic acid]
- pIC50 (COX-1 [1]): < 4.00
- COX-1/COX-2 Selectivity Index (IC50 ratio) (COX-2 [2]): >100

Structure (SMILES): CCOC(=O)Cc1cc(-c2ccc(S(C)(=O)=O)cc2)n(-c2ccccc2)c1C [Compound 1b, Ethyl 2-[2-methyl-5-(4-methylsulphonyl)phenyl-1-phenyl-1H-pyrrol-3-yl]acetate, reference compound]
- pIC50 (COX-1 [1]): < 4.00
- inhibition in vivo at 20 mg/kg [3, 9]: 18%
- inhibition in vivo at 20 mg/kg [3, 10]: 30%
- COX-1/COX-2 Selectivity Index (IC50 ratio) (COX-2 [2]): >2500
- inhibition in vivo at 20 mg/kg [4]: 10%

Structure (SMILES): Cc1ccc(-n2c(-c3ccc(S(C)(=O)=O)cc3)cc(CC(=O)O)c2C)cc1 [Compound 2a, 2-[1-(4-methyl)phenyl-2-methyl-5-(4-methylsulphonyl)phenyl-1H-pyrrol-3-yl]acetic acid]
- pIC50 (COX-1 [1]): < 4.00
- COX-1/COX-2 Selectivity Index (IC50 ratio) (COX-2 [2]): >200

Structure (SMILES): CCOC(=O)Cc1cc(-c2ccc(S(C)(=O)=O)cc2)n(-c2ccc(C)cc2)c1C [Compound 2b, Ethyl 2-[1-(4-methyl)phenyl-2-methyl-5-(4-methylsulphonyl)phenyl-1H-pyrrol-3-yl]acetate]
- pIC50 (COX-1 [1]): < 4.00
- COX-1/COX-2 Selectivity Index (IC50 ratio) (COX-2 [2]): >200

Structure (SMILES): Cc1c(CC(=O)O)cc(-c2ccc(S(C)(=O)=O)cc2)n1-c1ccc(C(F)(F)F)cc1 [Compound 3a]
- pIC50 (COX-1 [1]): < 4.00
- COX-1/COX-2 Selectivity Index (IC50 ratio) (COX-2 [2]): >900

Structure (SMILES): CCOC(=O)Cc1cc(-c2ccc(S(C)(=O)=O)cc2)n(-c2ccc(C(F)(F)F)cc2)c1C [Compound 3b, Ethyl 2-[2-methyl-5-(4-methylsulphonyl)phenyl-1-(4-trifluoromethyl)phenyl-1H-pyrrol-3-yl]acetate]
- pIC50 (COX-1 [1]): < 4.00
- COX-1/COX-2 Selectivity Index (IC50 ratio) (COX-2 [2]): >1600

- selectivity (COX-2 [5]): > 10000
- pIC50 (COX-2 [5]; [11]): 8.00
Structure (SMILES): CCOC(=O)Cc1cc(-c2ccc(S(C)(=O)=O)cc2)n(-c2cccc(F)c2)c1C [Compound 4b, Ethyl 2-[1-(3-fluoro)phenyl-2-methyl-5-(4-methylsulphonyl)phenyl-1H-pyrrol-3-yl]acetate, reference compound]
- inhibition in vivo at 20 mg/kg [3, 9]: 28%
- inhibition in vivo at 20 mg/kg [3, 10]: 40%
- inhibition in vivo at 20 mg/kg [4]: 30%

- selectivity (COX-2 [5]): > 5000
- pIC50 (COX-2 [5]; [11]): 7.70
Structure (SMILES): CCOC(=O)Cc1cc(-c2ccc(S(C)(=O)=O)cc2)n(-c2ccc(F)c(F)c2)c1C [Compound 5b, Ethyl 2-[1-(3,4-difluoro)phenyl-2-methyl-5-(4-methylsulphonyl)phenyl-1H-pyrrol-3-yl]acetate, reference compound]
- Edema 0-2 hrs MPE [6]: 8%
- Edema 0-6 hrs MPE [6]: 6%
- Analgesia 0-2 hrs MPE [7]: 9%
- Analgesia 0-6 hrs MPE [7]: 12%
- inhibition in vivo at 20 mg/kg [3, 9]: 30%
- inhibition in vivo at 20 mg/kg [3, 10]: 36%
- inhibition in vivo at 20 mg/kg [4]: 30%

- COX-1/COX-2 Selectivity Index (IC50 ratio) (COX-2 [5]; Table 2, Formula Ia): >7100
- melting point: 124 °C
Structure (SMILES): CCCCOC(=O)Cc1cc(-c2ccc(S(C)(=O)=O)cc2)n(-c2ccccc2)c1C [Example 6, n-Butyl[1-phenyl-2-methyl-5-(4-methylsulphonyl)phenyl-1H-pyrrol-3-yl]acetate]

- pIC50 (COX-2 [5]; [12]): 6.00
- melting point: 178 to 181 °C
- pIC50 (COX-1 [8]): < 4.00
Structure (SMILES): CNC(=O)Cc1cc(-c2ccc(S(C)(=O)=O)cc2)n(-c2ccccc2)c1C [Example 13, N-Methyl-[2-methyl-5-(4-methylsulphonyl)phenyl-1-phenyl-1H-pyrrol-3-yl]acetamide]

- pIC50 (COX-2 [5]; [12]): 6.24
- melting point: 175 to 179 °C
- pIC50 (COX-1 [8]): < 4.00
Structure (SMILES): Cc1c(CC(=O)N(C)C)cc(-c2ccc(S(C)(=O)=O)cc2)n1-c1ccccc1 [Example 15, N,N-Dimethyl-[2-methyl-5-(4-methylsulphonyl)phenyl-1-phenyl-1H-pyrrol-3-yl]acetamide]

- melting point: 157 to 160 °C
Structure (SMILES): CCCNC(=O)NCCc1cc(-c2ccc(S(C)(=O)=O)cc2)n(-c2ccccc2)c1C [Example 39, N-[2-(2-Methyl-5-(4-(methylsulphonyl)phenyl)-1-phenyl-1H-pyrrol-3-yl)ethyl]-3-propyl urea]
